We go through 2 compounds from EP4722219A1 (Gan & Lee Pharmaceuticals Co., Ltd., priority 2023, dated 2024).

What all share (type): cell-based
Experiment [1] deals with T1, ERα (Homo sapiens, UniProt P03372).
T1 sequence (P03372 1-595): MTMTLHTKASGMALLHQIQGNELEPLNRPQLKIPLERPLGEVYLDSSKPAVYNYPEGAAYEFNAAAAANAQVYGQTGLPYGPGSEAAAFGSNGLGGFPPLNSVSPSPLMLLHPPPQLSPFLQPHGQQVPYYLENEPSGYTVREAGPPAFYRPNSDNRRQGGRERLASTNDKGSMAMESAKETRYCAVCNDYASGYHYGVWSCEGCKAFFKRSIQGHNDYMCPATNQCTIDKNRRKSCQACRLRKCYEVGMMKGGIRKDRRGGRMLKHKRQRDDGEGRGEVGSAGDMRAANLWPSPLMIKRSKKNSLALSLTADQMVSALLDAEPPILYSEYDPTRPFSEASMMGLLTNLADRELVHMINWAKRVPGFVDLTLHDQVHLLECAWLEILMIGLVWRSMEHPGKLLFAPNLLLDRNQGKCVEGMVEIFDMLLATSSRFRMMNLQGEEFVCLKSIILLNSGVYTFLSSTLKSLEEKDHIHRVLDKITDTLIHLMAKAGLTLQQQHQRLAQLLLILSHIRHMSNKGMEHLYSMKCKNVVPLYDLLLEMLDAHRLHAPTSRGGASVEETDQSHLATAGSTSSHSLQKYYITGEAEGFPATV
Put plainly: ERα degradation in MCF-7 cells (Western blot). Set-up: host or cells: MCF-7. As to conditions: 4 hours. A digest of the protocol: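 MCF-7 cells treated 4 h at 37 °C with compound at 0.15–1000 nM final. ERα in lysates measured by Western blot (20 µg protein), normalized to an internal reference protein; degradation rate calculated against control.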

The next experiment relates to MCF-7 cells. Put plainly: Inhibition of cell proliferation in MCF-7 cells (CCK-8). As to conditions: MCF-7 cell proliferation, 6 days treatment. A digest of the protocol:
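MCF-7 cells, 800 per well in DMEM plus 10% FBS, exposed to graded PROTAC concentrations for 6 days at 37 °C, 5% CO2. Viability by CCK-8; IC50 fitted from inhibition rates.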

The target of experiment [2] is T1, ERα. The experiment in a line: ERα degradation in T-47D cells (Western blot). Particulars: 4 hours. An outline of the steps: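 T-47D cells at 3×10^5 cells/well were exposed to compound (final 0.15-1000 nM, DMSO) for 4 hours at 37°C and then lysed in RIPA. ERα was measured by Western blot (20 µg protein) with infrared imaging. The degradation rate was calculated from ERα/internal-reference grayscale ratios relative to control.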

In the next experiment the test system is T-47D cells. Put plainly: Inhibition of cell proliferation in T-47D cells (CCK-8). Particulars: 6 days treatment, CCK-8 cell viability. An outline of the steps: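 T-47D cells (3,000/well) in RPMI-1640 with 10% FBS were exposed to a concentration range of PROTAC compounds for 6 days at 37 °C, 5% CO2. Viability read by CCK-8; IC50 fitted from inhibition rate.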

`O=C1CC[C@H](NC(=O)c2cc3c(cc2F)N2CCN(C[C@H]4CC[C@@H](OC5CCN(c6ccc([C@@H]7c8ccc(O)cc8CC[C@@H]7c7ccccc7)cc6)CC5)CC4)C[C@@H]2CO3)C(=O)N1` [ER-P-67, (R)-N-((S)-2,6-dioxopiperidin-3-yl)-9-fluoro-3-(((1S,4S)-4-((1-(4-((1R,2S)-6-hydroxy-2-phenyl-1,2,3,4-tetrahydronaphthalen-1-yl)phenyl)piperidin-4-yl)oxy)cyclohexyl)methyl)-1,2,3,4,4a,5-hexahydrobenzo[b]pyrazi no[1,2-d][1,4]oxazine-8-carboxamide]: the “Degradation rate of ERα in MCF-7 cells (%)” value on ERα [1] (1nM) amounted to 28%; on ERα [1] (10nM) it was 13%. For the same compound, the IC50 in the experiment on MCF-7 cells (Homo sapiens, MCF7, 144 h) stood at 2990 nM; in the experiment on T-47D cells (Homo sapiens, T47D, 144 h) it was 92.5 nM. In addition, the “Degradation rate of ERα in T-47D cells (%)” value stood at 6% on ERα [2] (1nM) and 20% on ERα [2] (10nM).

With “(S)-N-((S)-2,6-dioxopiperidin-3-yl)-3-(((1S,4R)-4-((1-(4-((1R,2S)-6-hydroxy-2-phenyl-1,2,3,4-tetrahydronaphthalen-1-yl)phenyl)piperidin-4-yl)oxy)cyclohexyl)methy l)-1,2,3,4,4a,5-hexahydrobenzo[b]pyrazi no[1,2-d][1,4]oxazine-8-carboxamide [ER-P-47]”, the entries for the “Degradation rate of ERα in MCF-7 cells (%)” value on ERα [1] (1nM) and on ERα [1] (10nM) were 21% and 26%, respectively. Also, the IC50 in the experiment on MCF-7 cells is 8430 nM; with T-47D cells it was 1.47 nM. For the same compound, the “Degradation rate of ERα in T-47D cells (%)” value at ERα [2] (1nM) was -14%; at ERα [2] (10nM), 25%.
